# Measurements as given in patent US20100234323A1, “Antimicrobial Acids and Salts” (priority 2006, published 2010).
# Where “and” joins values, the source holds several entries; their conditions need not be identical. Identical values can stand only once.
# How the values were obtained:
# [1] = system: Staphylococcus aureus (ATCC 5638); assay: Microbicidal activity, European Standard EN1040 suspension test; format: cell-based; settings: for S. aureus cfu/mL (residual cell count): room temperature
# Experimental: (§1) Microbicidal activity of different anionic siloxanes with carboxyl groups is tested according to European Standard EN1040. A bacterial suspension with a cell count of about 10^7 cfu/ml (cfu stands for colony-forming units) is contacted with appropriate concentrations of the specific substances and the residual cell count is determined after incubation times of 5 and 30 min. at room temperature under continuos stirring. Staphylococcus aureus (ATCC 5638, American Type Culture Collection, Manassas, USA) is tested as gram+ (gram positive) and Escherichia coli (ATCC 10535, American Type Culture Collection) as gram-organism. The results are given as a log reduction at each incubation time in comparison to a water control in the following tables (a) and (b): […]
# [2] = system: Escherichia coli (ATCC 10535); assay: as above; format: cell-based; settings: for E. coli cfu/mL (residual cell count): room temperature
# Experimental: as §1
# [3] = system: Penicillium funiculosum (DSM 1960); assay: Fungicidal activity, European Standard EN12175 spore suspension test; format: cell-based; settings: test conc. 1%; for log reduction P. funic.: vs water control
# Experimental: (§2) Fungicidal activity is tested according to European Standard EN12175. A fungal spore suspension with a spore cell count of about 10^6 cfu/ml is contacted with appropriate concentrations of the specific substances (Examples) mentioned in the tables below and the residual spore cell count is determined after incubation times of 30 and 60 min at room temperature under continuous stirring. Penicillium funiculosum (DSM 1960), Aspergillus niger (DSM 1957/ATCC 6275) and Aureobasidium pullulans (DSM 2404) are tested as important mold strains. DSM refers to microorganisms obtainable under the numbers given at the DSMZ (Deutsche Sammlung von Mikroorganismen and Zellkulturen GmbH, Braunschweig, Germany). ATCC numbers refer to organisms obtainable from the American Type Culture Collection (see Example 6). The results are given as a log reduction at each incubation time in comparison to a water control in table (d): […]
# [4] = system: Aureobasidium pullulans (DSM 2404); assay: as above; format: cell-based; settings: test conc. 1%; for log reduction A. pull.: vs water control
# Experimental: as §2
# [5] = system: Aspergillus niger (DSM 1957/ATCC 6275); assay: as above; format: cell-based; settings: test conc. 1%; for log reduction A. niger: vs water control
# Experimental: as §2
# [6] = system: Staphylococcus aureus cells; assay: Antiadhesive efficacy on coated PMMA test specimen, antibody colorimetric assay; format: cell-based; settings: specimen coated from 0.50% solution in EtOH; S. aureus suspension 1 hour at 30°
# Experimental: The antiadhesive efficacy (inhibition of adhesion of microorganisms) is tested after temporarily attaching various compounds to PMMA test specimen by incubation of the test specimen in a 0.5% solution in ethanol. The coated specimen are then dried and afterwards incubated in a suspension of Staphylococcus aureus cells for 1 hour at 30° under shaking. After some washing steps, the attached cells are detected via binding of a primary antibody and—after incubation of night and again washing steps—binding of a secondary antibody with alkaline phosphatase attached. The adhesion is then determined in a colorimetric assay in comparison to an untreated PMMA test specimen, which is calculated as showing 100% adhesion.
# S. aureus ATCC 6538 = assay: Antibacterial efficacy on treated polypropylene non-woven, modified AATCC-100; format: cell-based, Staphylococcus aureus
# Experimental: (§3) A solution of Example 1 in a solvent (tetrahydrofurane and/or acetone) is prepared with a concentration of 1 or 2% of the compound of Example 1. This solution is sonicated for 1 min to ensure complete dissolution of the test acid compound. Then polypropylene non-woven (10×10 cm) is dipped into the solution (100 ml) and left under sonication for 1 min. The non-woven is taken out of the solution and dried on air at room temperature for some hours. This non-woven is then used for microbial testing as follows:
# (§4) The efficacy of Example 1 is tested after application onto polypropylene non-woven material according to a modified AATCC-100 standard for assessing antibacterial activity on textiles. Overnight cultures of two test bacteria are contacted with the treated non-woven material by pipetting a diluted suspension onto the surface of the material. The non-woven is then incubated for 24 hours at 37° C., and then the cell count is determined by elution of the materials into a neutralizing medium, dilution series and plate count technique. As in the basic test for microbicidal activity (Example 6), Staphylococcus aureus is used as the gram+ and Escherichia coli as the gram-organism.
# (§5) The results are given in tables (f) and (g) as cell count directly after inoculation and after 24 hours incubation time in comparison to an untreated polypropylene non-woven as the blank.
# E. coli ATCC 10536 = assay: as above; format: cell-based, Escherichia coli
# Experimental: as §3, §4, §5
# [7] = test concentration 1%, 5 min, vs water control
# [8] = test concentration 1%, 30 min, vs water control
# [9] = test concentration 1000 ppm, 5 min
# [10] = test concentration 1000 ppm, 30 min
# [11] = 1% in EtOH (ethanolic stock solution), 5 min
# [12] = 1% in EtOH (ethanolic stock solution), 30 min
# [13] = 1% in H2O (stock solution in water), 5 min
# [14] = 1% in H2O (stock solution in water), 30 min
smiles,measurement,setting,value
C[Si](C)(CCCC(CC(=O)O)C(=O)O)O[Si](C)(C)O[Si](C)(C)O[Si](C)(C)O[Si](C)(C)O[Si](C)(C)O[Si](C)(C)O[Si](C)(C)O[Si](C)(C)O[Si](C)(C)O[Si](C)(C)O[Si](C)(C)CCCC(CC(=O)O)C(=O)O (centres unmarked) [Example 5],S. aureus cfu/mL (residual cell count),"[1]; test concentration 1%, 5 min",1.34E+07 cfu/mL
same,log reduction S. aureus,[1]; [7],<1
same,S. aureus cfu/mL (residual cell count),"[1]; test concentration 1%, 30 min",7.86E+06 cfu/mL
same,log reduction S. aureus,[1]; [8],<1
same,E. coli cfu/mL (residual cell count),"[2]; test concentration 1%, 5 min",1.54E+07 cfu/mL
same,log reduction E. coli,[2]; [7],<1
same,E. coli cfu/mL (residual cell count),"[2]; test concentration 1%, 30 min",3.58E+06 cfu/mL
same,log reduction E. coli,[2]; [8],<1
same,P. funic. cfu/mL (residual spore cell count),[3]; 30 min,2.5E+06 cfu/mL
same,log reduction P. funic.,[3]; 30 min,<1
same,P. funic. cfu/mL (residual spore cell count),[3]; 1 h,2.7E+06 cfu/mL
same,log reduction P. funic.,[3]; 1 h,<1
same,A. pull. cfu/mL (residual spore cell count),[4]; 30 min,3.5E+05 cfu/mL
same,log reduction A. pull.,[4]; 30 min,<1
same,A. pull. cfu/mL (residual spore cell count),[4]; 1 h,3.4E+05 cfu/mL
same,log reduction A. pull.,[4]; 1 h,<1
same,A. niger cfu/mL (residual spore cell count),[5]; 30 min,7.0E+05 cfu/mL
same,log reduction A. niger,[5]; 30 min,<1
same,A. niger cfu/mL (residual spore cell count),[5]; 1 h,6.0E+05 cfu/mL
same,log reduction A. niger,[5]; 1 h,<1
same,results on PMMA (adhesion; untreated PMMA = 100% adhesion),[6],50%
C[Si]1(CCCP(=O)(O)O)O[Si](C)(CCCP(=O)(O)O)O[Si](C)(CCCP(=O)(O)O)O[Si](C)(CCCP(=O)(O)O)O1 (centres unmarked) [Example 2],S. aureus cfu/mL,[1]; [9],1.42E+03 cfu/mL
same,log reduction S. aureus,[1]; [9],4.3
same,S. aureus cfu/mL,[1]; [10],0.00E+00 cfu/mL
same,log reduction S. aureus,[1]; [10],>5
same,E. coli cfu/mL,[2]; [9],1.50E+04 cfu/mL
same,log reduction E. coli,[2]; [9],3.2
same,E. coli cfu/mL,[2]; [10],0.00E+00 cfu/mL
same,log reduction E. coli,[2]; [10],>5
C[Si]1(CCCC(CC(=O)O)C(=O)O)O[Si](C)(CCCC(CC(=O)O)C(=O)O)O[Si](C)(CCCC(CC(=O)O)C(=O)O)O[Si](C)(CCCC(CC(=O)O)C(=O)O)O1 (centres unmarked) [Example 1],activity against S. aureus (in words),S. aureus ATCC 6538; applied at 2%,full activity
same,activity against S. aureus (in words),S. aureus ATCC 6538; non-woven treated with 1%,some but inconsistent activity
same,"S. aureus cell count, 24 hours","S. aureus ATCC 6538; polypropylene nonwoven treated with 2% solution, 24 hours at 37° C.",<100 cfu/sample
same,S. aureus cfu/mL,[1]; [11],3.45E+06 cfu/mL
same,log reduction S. aureus,[1]; [11],1
same,S. aureus cfu/mL,[1]; [12],1.10E+04 cfu/mL
same,log reduction S. aureus,[1]; [12],3.3
same,S. aureus cfu/mL,[1]; [13],6.98E+06 cfu/mL and 8.19E+06 cfu/mL
same,log reduction S. aureus,[1]; [13],<1
same,S. aureus cfu/mL,[1]; [14],9.55E+05 cfu/mL and 1.12E+06 cfu/mL
same,log reduction S. aureus,[1]; [14],1.3
same,S. aureus cfu/mL (residual cell count),"[1]; test concentration 1%, 5 min",1.20E+04 cfu/mL
same,log reduction S. aureus,[1]; [7],3.1
same,S. aureus cfu/mL (residual cell count),"[1]; test concentration 1%, 30 min",0.00E+00 cfu/mL
same,log reduction S. aureus,[1]; [8],>5
same,E. coli cfu/mL,[2]; [11],1.37E+06 cfu/mL
same,log reduction E. coli,[2]; [11],1.2
same,E. coli cfu/mL,[2]; [12],0.00E+00 cfu/mL
same,log reduction E. coli,[2]; [12],>5
same,E. coli cfu/mL,[2]; [13],4.62E+06 cfu/mL and 5.03E+06 cfu/mL
same,log reduction E. coli,[2]; [13],<1
same,E. coli cfu/mL,[2]; [14],1.97E+06 cfu/mL and 2.09E+06 cfu/mL
same,log reduction E. coli,[2]; [14],1.1
same,E. coli cfu/mL (residual cell count),"[2]; test concentration 1%, 5 min",0.00E+00 cfu/mL
same,log reduction E. coli,[2]; [7],>5
same,E. coli cfu/mL (residual cell count),"[2]; test concentration 1%, 30 min",0.00E+00 cfu/mL
same,log reduction E. coli,[2]; [8],>5
same,activity against E. coli (in words),E. coli ATCC 10536; applied at 2%,high activity
same,activity against E. coli (in words),E. coli ATCC 10536; non-woven treated with 1%,no activity
same,P. funic. cfu/mL (residual spore cell count),[3]; 30 min,4.0E+06 cfu/mL
same,log reduction P. funic.,[3]; 30 min,<1
same,P. funic. cfu/mL (residual spore cell count),[3]; 1 h,3.8E+06 cfu/mL
same,log reduction P. funic.,[3]; 1 h,<1
same,A. pull. cfu/mL (residual spore cell count),[4]; 30 min,2.1E+05 cfu/mL
same,log reduction A. pull.,[4]; 30 min,<1
same,A. pull. cfu/mL (residual spore cell count),[4]; 1 h,2.2E+05 cfu/mL
same,log reduction A. pull.,[4]; 1 h,<1
same,A. niger cfu/mL (residual spore cell count),[5]; 30 min,1.1E+06 cfu/mL
same,log reduction A. niger,[5]; 30 min,<1
same,A. niger cfu/mL (residual spore cell count),[5]; 1 h,1.2E+06 cfu/mL
same,log reduction A. niger,[5]; 1 h,<1
same,results on PMMA (adhesion; untreated PMMA = 100% adhesion),[6],85%
C[Si](C)(C)O[Si](C)(C)O[Si](C)(CCCC(CC(=O)O)C(=O)O)O[Si](C)(C)C (centres unmarked) [Example 4],S. aureus cfu/mL (residual cell count),"[1]; test concentration 1%, 5 min",3.22E+06 cfu/mL
same,log reduction S. aureus,[1]; [7],<1
same,S. aureus cfu/mL (residual cell count),"[1]; test concentration 1%, 30 min",1.67E+04 cfu/mL
same,log reduction S. aureus,[1]; [8],2.9
same,E. coli cfu/mL (residual cell count),"[2]; test concentration 1%, 5 min",1.03E+05 cfu/mL
same,log reduction E. coli,[2]; [7],2.3
same,E. coli cfu/mL (residual cell count),"[2]; test concentration 1%, 30 min",0.00E+00 cfu/mL
same,log reduction E. coli,[2]; [8],>5
same,P. funic. cfu/mL (residual spore cell count),[3]; 30 min,4.8E+05 cfu/mL
same,log reduction P. funic.,[3]; 30 min,1.0
same,P. funic. cfu/mL (residual spore cell count),[3]; 1 h,1.14E+05 cfu/mL
same,log reduction P. funic.,[3]; 1 h,1.6
same,A. pull. cfu/mL (residual spore cell count),[4]; 30 min,1.3E+05 cfu/mL
same,log reduction A. pull.,[4]; 30 min,<1
same,A. pull. cfu/mL (residual spore cell count),[4]; 1 h,9.0E+04 cfu/mL
same,log reduction A. pull.,[4]; 1 h,<1
same,A. niger cfu/mL (residual spore cell count),[5]; 30 min,1.5E+04 cfu/mL
same,log reduction A. niger,[5]; 30 min,2.0
same,A. niger cfu/mL (residual spore cell count),[5]; 1 h,1.3E+04 cfu/mL
same,log reduction A. niger,[5]; 1 h,2.1
same,results on PMMA (adhesion; untreated PMMA = 100% adhesion),[6],46%
